{
  "source": "paper PMC6178282",
  "about": "“Comparative cell biological study of in vitro antitumor and antimetastatic activity on melanoma cells of GnRH-III-containing conjugates modified with short-chain fatty acids” (Beilstein Journal of Organic Chemistry, 2018)",
  "key": {"A2058 melanoma cells [1]": {"test_system": "A2058 melanoma cells", "test": "Apoptosis assay, annexin V-FITC flow cytometry", "format": "cell-based, human", "conditions": "10^−5 M, 24 h, average of two parallels ± S.D., control 10.6 ± 0.51", "method": "The pro-apoptotic effects of conjugates and Dau at 10^−5 M concentration was studied after 24 h incubation by flow cytometry using FITC-annexin V (Sony Biotechnology, Weybridge, UK) and a novel image cytometer (NucleoCounter® NC-250^TM, ChemoMetec A/S, Lillerød, Denmark) using Vitabright-48™ (ChemoMetec A/S, Lillerød, Denmark), a cell permeable dye that reacts with thiol groups to form a fluorescent product. […]\nnormalizing the viability of conjugate-treated cells with that of the control cells, and these indices of groups pretreated with inhibitors or DMSO were statistically compared.\nThe apoptotic effect of conjugates and Dau was determined by a FACSCalibur flow cytometer (Becton Dickinson, San Jose, CA, USA) after staining with annexin V-FITC (Sony Biotechnology, Weybridge, UK) and NucleoCounter® NC-250™ cell analyzer (ChemoMetec A/S, Lillerød, Denmark) using Vitabright-48™, a cell-permeable fluorescent dye (ChemoMetec A/S, Lillerød, Denmark). […]\nThe cells were dissociated by a TrypLE reagent (Thermo Fisher Scientific, Waltham, MA, USA) composed of recombinant enzyme protecting the cell’s surface proteins and it was followed by a centrifugation and a washing step with PBS. […] Before labeling with annexin V-FITC, the cells were measured by a flow cytometer for controlling the autofluorescence of cells in case of each treatment group. […]"}, "A2058 melanoma cells [2]": {"test_system": "A2058 melanoma cells", "test": "xCELLigence impedance-based long-term antiproliferative/cytotoxic measurement", "format": "cell-based, human", "conditions": "for IC50: Homo sapiens", "excerpt": "One of the major requirements for a drug-delivery conjugate is the ability to provide the antitumor activity of the attached drug inside the cells. The antiproliferative/cytotoxic effect of conjugates was investigated by an impedimetric technique, xCELLigence System (ACEA Biosciences, San Diego, CA, USA). The real-time measurement of the impedance change, which is in direct correlation with the number of adhered cells on an electrode surface, makes this impedimetric assay sensitive enough for cytotoxicity experiments. In the event of a cytotoxic compound, the cells detach from the electrode surface and a drop in the impedance – given as Cell index values – could be observed.\nIC50 values – a concentration that decreases the cell viability by 50% – were calculated from Cell index values obtained at 48 h and 72 h for each concentration and used for comparing the effects of conjugates. It is clearly seen that the presence of acylated Lys could increase almost 10-fold the antitumor activity (p < 0.001) of parent conjugate (GnRH-III(Dau=Aoa)). […]\nCell proliferation and cytotoxicity measurement\nThe antiproliferative/cytotoxic effect of conjugates compared with Dau was assessed using the xCELLigence SP System (ACEA Biosciences, San Diego, CA, USA). This system uses a so-called E-plate having gold microelectrodes covered the surface of each well and quantifies different cellular activities (e.g. cell proliferation, cell adhesion) by real-time measuring the impedance. The detected impedance change is in direct correlation with the cell number or the electrode surface covered by the attached cells. A relative and dimensionless parameter, Cell index (CI), was calculated from the detected impedance change by the following formula: […]\nwhere Zi is the impedance at a given time point, Z0 is the impedance at t = 0 h, and Fi is a constant depending on the frequency (F10kHz = 15). […]\nFor the treatment of the cells, the conjugates and the free drug were applied in 10−12–10−4 M final concentrations and the cells were monitored for further 72 h. […]\nIn order to evaluate whether the conjugates could elicit their antiproliferative/cytotoxic character in short-term, A2058 cells (10^4 cells/well) were seeded in 96-well plate 24 h before the treatment. […] After treating the cells with compounds in 10−6–10−5 M concentrations, where their most significant cytotoxic effect was detected in case of the long-term treatments, the cells were washed twice with serum-free medium and cultured for further 48 h in serum-containing medium. The viability of cells was determined by alamarBlue-assay (Thermo Fisher Scientific, Waltham, MA, USA) according to the manufacturer’s instruction. After 4 h incubation with the alamarBlue® reagent, the fluorescence intensity of the reaction product"}, "[3]": {"conditions": "A2058 cells, Cell index time course, Figure S5"}},
  "note": "Like-named read-outs stand apart in the source and are kept apart here.",
  "data": [
    {"smiles": "COc1cccc2c1C(=O)c1c(O)c3c(c(O)c1C2=O)C[C@@](O)(C(C)=O)C[C@@H]3O[C@H]1C[C@H](N)[C@H](O)[C@H](C)O1", "note": "[daunorubicin]", "values": [
      {"measurement": "the ratio of apoptotic cells, annexin V", "setting": "A2058 melanoma cells [1]", "result": "33.6 ± 5.51", "unit": "%"},
      {"measurement": "concentrations at which the tumor-growth inhibitory effect was elicited (time-course study)", "setting": "A2058 melanoma cells [2]; [3]", "result": "10^–6 to 10^−4 M"},
      {"measurement": "time after treatment at which the effect on Cell index set in", "setting": "A2058 melanoma cells [2]; [3]", "result": "0 to 5", "unit": "h"},
      {"measurement": "IC50", "setting": "A2058 melanoma cells [2]; A2058, 48 h, read-out: 48 h IC50", "result": "190 ± 17", "unit": "nM"},
      {"measurement": "IC50", "setting": "A2058 melanoma cells [2]; A2058, 72 h, read-out: 72 h IC50", "result": "53 ± 9", "unit": "nM"}
    ]}
  ]
}
